Measured values as given in PubChem BioAssay (NCI).
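How tested: cells in 96-well plates exposed to compound for 48 hours at five concentrations. GI50 = concentration required for 50% inhibition of growth. TGI is the concentration that stops growth completely.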

Assays:
Experiment in all cases: inhibition of tumour cell growth, NCI panel, 48 h
[1] = system: NCI-H226 lung
[2] = system: NCI-H23 lung
[3] = system: NCI-H460 lung
[4] = system: NCI-H522 lung
[5] = system: NCI/ADR-RES ovarian
[6] = system: OVCAR-3 ovarian
[7] = system: OVCAR-4 ovarian
[8] = system: OVCAR-5 ovarian
[9] = system: OVCAR-8 ovarian
[10] = system: PC-3 prostate
[11] = system: RPMI-8226 leukemia
[12] = system: RXF 393 renal
[13] = system: SF-268 CNS
[14] = system: SF-295 CNS
[15] = system: SF-539 CNS
[16] = system: SK-MEL-28 melanoma
[17] = system: SK-MEL-5 melanoma
[18] = system: SK-OV-3 ovarian
[19] = system: SN12C renal
[20] = system: SNB-19 CNS
[21] = system: SNB-75 CNS
[22] = system: SR leukemia
[23] = system: SW-620 colon
[24] = system: T-47D breast
[25] = system: TK-10 renal
[26] = system: U251 CNS
[27] = system: UACC-257 melanoma
[28] = system: UACC-62 melanoma
[29] = system: UO-31 renal

C[C@@H]1CN(c2ccc3ncc(C#Cc4cncc(C(=O)Nc5ccc(CN6CCN(C)CC6)c(C(F)(F)F)c5)c4)n3n2)C[C@@H](C)O1
GI50 [1]: 87.9 nM | TGI [1]: 574 nM | GI50 [2]: 268 nM | TGI [2]: 617 nM | GI50 [3]: 379 nM | TGI [3]: 1040 nM | GI50 [4]: 261 nM | TGI [4]: 525 nM | GI50 [5]: 899 nM | TGI [5]: 1850 nM | GI50 [6]: 328 nM | TGI [6]: 1130 nM | GI50 [7]: 263 nM | TGI [7]: 1240 nM | GI50 [8]: 363 nM | TGI [8]: 922 nM | GI50 [9]: 366 nM | TGI [9]: 1050 nM | GI50 [10]: 507 nM | TGI [10]: 1810 nM | GI50 [11]: 507 nM | TGI [11]: 2030 nM | GI50 [12]: 187 nM | TGI [12]: 432 nM | GI50 [13]: 299 nM | TGI [13]: 1130 nM | GI50 [14]: 332 nM | TGI [14]: 1010 nM | GI50 [15]: 142 nM | TGI [15]: 382 nM | GI50 [16]: 520 nM | TGI [16]: 1230 nM | GI50 [17]: 673 nM | TGI [17]: 1370 nM | GI50 [18]: 510 nM | TGI [18]: 1570 nM | GI50 [19]: 143 nM | TGI [19]: 647 nM | GI50 [20]: 467 nM | TGI [20]: 1260 nM | GI50 [21]: 61.6 nM | TGI [21]: 188 nM | GI50 [22]: 499 nM | TGI [22]: 10300 nM | GI50 [23]: 277 nM | TGI [23]: 768 nM | GI50 [24]: 754 nM | TGI [24]: 2220 nM | GI50 [25]: 299 nM | TGI [25]: 727 nM | GI50 [26]: 362 nM | TGI [26]: 1010 nM | GI50 [27]: 737 nM | TGI [27]: 3510 nM | GI50 [28]: 310 nM | TGI [28]: 989 nM | GI50 [29]: 128 nM | TGI [29]: 462 nM
